{"source": "patent US20120208873A1", "about": "“TEA POLYPHENOLS PRODUCTS FOR CEASING SMOKING AND TREATING AND/OR PREVENTING NICOTINE OR NICOTINE-DERIVED COMPOUNDS OR ESTROGEN INDUCED BREAST CANCER” (priority 2011, published 2012)", "key": {"α9-nAChR protein": {"system": "α9-nAChR protein", "assay": "α9-nAChR protein levels by immunoblotting in MCF-7 cells", "type": "cell-based, human", "procedure": "(§1) Human mammary gland epithelial adenocarcinomas (MCF7, MDA-MB-231, AU-565, MDA-MB-453, and BT-483) and normal human mammary gland epithelial fibrocystic cell lines (MCF-10A and HBL-100) were purchased from ATCC (American Type Culture Collection, Manassas, Va., USA). MCF-7, MDA-MB-231, and MDA-MB-453 cells were maintained in DMEM, whereas BT-483 cells were maintained in RPMI-1640. Cell growth, proliferation, and viability were determined by the 3-(4,5-dimethylthiazol-2-yl)-2,5-diphenyltetrazolium (MTT) assay. The formazan product was measured by absorbance at 540 nm.\n(§2) To prepare protein samples, cells were washed once with ice-cold PBS and lysed on ice in cell lysis buffer (50 mM Tris-HCl, pH 8.0, 120 mM […], 0.5% Nonidet P-40, 100 mM sodium fluoride, and 200 μM sodium orthovanadate) containing protease inhibitors as described previously (Shih, Y. L., Liu, H. C., Chen, C. S., Hsu, C. H. et al., J. Agric. Food Chem. 2010, 58, 235-241). Protein (50 μg) from each sample was resolved by 12% SDS-polyacrylamide gel electrophoresis, transferred, and analyzed by Western blotting. Antibodies were purchased from the following vendors: anti-total AKT and protein A/G agarose beads were obtained from Santa Cruz Biotechnology (Santa Cruz, Calif., USA); anti-GAPDH and anti-α9-nAChR antibodies were from Abcam (Cambridge, UK); antiphospho AKT (Ser^473), anti-c-Jun, and anti-c-Fos were from Cell Signaling Technology (Beverly, Mass., USA). The secondary antibodies, alkaline phosphatase-coupled anti-mouse, and anti-rabbit IgG were purchased from Santa Cruz Biotechnology. The specific protein complexes were identified with the chromogenic substrates nitro blue tetrazolium, and 5-bromo-4-chloro-3-indolyl-phosphate from KPL (Gaithersburg, Md., USA). In each experiment, proteins were also probed with anti-GAPDH antibodies as a protein-loading control."}, "AP-1": {"system": "AP-1", "assay": "ChIP assay of AP-1 binding to the α9-nAChR promoter in MCF-7 cells", "type": "cell-based, human", "conditions": "24 h after Nic 10 μM", "procedure": "Chromatin immunoprecipitation (ChIP) assays of cultured cells were performed as described previously (Chen, C. S., Lee, C. H., Hsieh, C. D., Ho, C. T. et al., Breast Cancer Res. Treat. 2010; Shih, Y. L., Liu, H. C., Chen, C. S., Hsu, C. H. et al., J. Agric. Food Chem. 2010, 58, 235-241). Briefly, after various regimens of Nic treatment, the cells were fixed with a final concentration of 1% formaldehyde directly added to the cell culture medium at 25° C. for 15 min. The crosslinking reaction was terminated with 0.125 M glycine for 5 min, and the cells were collected into a new Eppendorf tube. The cell lysate was sonicated three times with 10 s bursts to yield input DNA enriched for fragments around 1000 bp in size. A c-Jun (AP-1) antibody (Santa Cruz Biotechnology) was used for the immunoprecipitation reactions. Primers, which detect the a9-nAChR promoter regions, amplified a region from −960 to −1 for 32 cycles (forward: 5′-ATGCAATG CAAGCCTGAGCT-3′ (SEQ ID NO:2) and reverse: 5′-TATA-[…]-3′ (SEQ ID NO:3)). The PCR products were then separated and analyzed by agarose gel electrophoresis."}, "α9-nAChR promoter": {"system": "α9-nAChR promoter", "assay": "α9-nAChR promoter luciferase activity assay in MCF-7 cells", "type": "cell-based, human", "conditions": "24-h treatment, Nic 10 μM or E2 10 nM, vehicle = one-fold", "procedure": "All α9-nAChR promoter—luciferase gene fusions were made in the pGL3-Basic vector (Promega, Madison, Wis., USA) by introducing the appropriate α9-nAChR promoter fragments into the polylinker upstream of the luciferase gene. These fragments were generated with restriction enzymes and cloned directly into pGL3-Basic or subcloned first in pBluescript and then transferred to pGL3-Basic. Deletion analysis of the most promoter-proximal region was performed by generating either appropriate restriction enzyme fragments or PCR fragments with suitable sense oligonucleotides and an antisense primer (5′-[…]-3′ (SEQ ID NO:1)) that anneals to the pGL3-Basic vector downstream of the site of transcription initiation.\nMCF-7 cells were plated in 6-well plates. Cells were transiently cotransfected the next day with 1.5 μg of PGL3-Basic plasmid containing the full-length α9-nAChR promoter and 0.1 μg of the RLTK plasmid (Promega) using an MP-100 microporator (Digital Bio), according to the manufacturer's instructions. After incubation for 24 h, the medium was changed to culture medium containing 10% FBS or 0.1% FB S with or without Nic. Cells were lysed 24 h later with 1× Reporter Lysis Buffer (Promega) and stored frozen at −20° C. overnight. Luciferase activity was determined by testing 50 μL of the cell lysate and 50 μL of the Luciferase Assay Reagent (Promega) using a HIDEX Chameleon Microplate Reader. Relative luciferase units were normalized to renilla luciferase from the same cell lysates. Each luciferase assay experiment was performed three times."}, "MCF-10A cells": {"system": "MCF-10A cells", "assay": "Cell proliferation (MTT assay) in normal MCF-10A cells", "type": "cell-based, human", "conditions": "Nic 10 μM or EGCG 10-25 μM", "procedure": "as §1"}, "p-AKT (Ser^473)": {"system": "p-AKT (Ser^473)", "assay": "phosphorylated AKT by immunoblotting in MCF-7 cells", "type": "cell-based, human", "conditions": "Nic 10 μM or E2 10 nM, 24 h", "procedure": "as §2"}, "[1]": {"conditions": "cited from earlier work"}, "MCF-7 cells": {"system": "MCF-7 cells", "assay": "Cell proliferation (MTT assay) in MCF-7 cells", "type": "cell-based, human", "conditions": "Nic 10 μM", "procedure": "as §1"}, "α9-nAChR mRNA": {"system": "α9-nAChR mRNA", "assay": "α9-nAChR mRNA by RT-PCR / real-time PCR in MCF-7 cells", "type": "cell-based, human", "procedure": "Total RNA was isolated from human cell lines using TRIzol (Invitrogen, Carlsbad, Calif., USA) according to the manufacturer's protocol. The α9-nAChR subunit-specific primers were synthesized by MB Mission BioTech (Taipei, Taiwan) as described in the previous reports (Chen, C. S., Lee, C. H., Hsieh, C. D., Ho, C. T. et al., Breast Cancer Res. Treat. 2010; Shih, Y. L., Liu, H. C., Chen, C. S., Hsu, C. H. et al., J. Agric. Food Chem. 2010, 58, 235-241). The PCR amplicons were analyzed on 1.2% agarose gels (Amresco, Solon, Ohio, USA) stained with ethidium bromide. The α9-nAChR mRNA intensity was measured and normalized to β-glucuronidase expression. Pictures of the bands were taken using an INFINITY-α digital imaging system (Vilber Lourmat, France), and band intensities were determined using PhotoCapt Version 11.01 software."}, "α9-nAChR": {"target": "T1, α9-nAChR (Homo sapiens, UniProt Q9UGM1)", "T1 construct": "breast cancer cell proliferation induced by Nic could be mediated through endogenous α9-nAChR; endogenous in cells; host or cells: MCF-7 cell monolayers: wild type, scramble control (Sc) and α9-nAChR siRNA knockdown (Si) clones", "T1 sequence (Q9UGM1 26-479 limits assumed)": "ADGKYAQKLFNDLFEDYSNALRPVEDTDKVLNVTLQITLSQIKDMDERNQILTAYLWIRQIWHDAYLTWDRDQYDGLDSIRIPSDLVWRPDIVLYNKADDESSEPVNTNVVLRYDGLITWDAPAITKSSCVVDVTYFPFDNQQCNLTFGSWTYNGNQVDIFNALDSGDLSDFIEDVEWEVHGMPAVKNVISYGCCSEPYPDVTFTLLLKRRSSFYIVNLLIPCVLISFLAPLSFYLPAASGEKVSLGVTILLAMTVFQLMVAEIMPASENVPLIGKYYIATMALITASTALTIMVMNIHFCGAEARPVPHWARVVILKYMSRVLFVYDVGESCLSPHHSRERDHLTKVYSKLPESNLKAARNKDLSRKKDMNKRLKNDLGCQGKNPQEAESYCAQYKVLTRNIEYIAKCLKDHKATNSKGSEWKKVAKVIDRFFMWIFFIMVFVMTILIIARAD", "conditions": "MCF-7 cells, previous results, cited from earlier work"}}, "note": "Where two headings read alike, the source gives them in different places."}
{"smiles": "O=c1cc(N2CCOCC2)oc2c(-c3ccccc3)cccc12", "note": "[LY294002]", "values": [{"measurement": "Nic- and E2-induced upregulation of α9-nAChR protein after inhibitor pretreatment", "setting": "α9-nAChR protein; MCF-7, 24 h pretreatment (LY294002 25 μM or EGCG 10 μM), then Nic 10 μM or E2 10 nM 24 h", "value": "not significantly inhibited"}]}
{"smiles": "CN(CCCC(=O)c1cccnc1)N=O", "note": "[NNK, 4-(methylnitrosamino)-1-(3-pyridyl)-1-butanone]", "values": [{"measurement": "α9-nAChR protein level", "setting": "α9-nAChR protein; MCF-7, Nic 0.1-10 μM, NNK 0.1-10 μM or E2 1-200 nM, 24 h, dose-dependent", "value": "significantly induced"}]}
{"smiles": "CN1CCCC1c1cccnc1", "note": "(centres unmarked) [Nic, nicotine]", "values": [{"measurement": "time after Nic treatment at which significant increase in α9-nAChR protein level was detected", "setting": "α9-nAChR protein", "value": 6, "unit": "h"}, {"measurement": "α9-nAChR protein level", "setting": "α9-nAChR protein", "value": "significantly induced"}, {"measurement": "binding of AP-1 to the α9-nAChR promoter", "setting": "AP-1", "value": "increased binding"}, {"measurement": "induction of full-length α9-nAChR promoter luciferase activity", "setting": "α9-nAChR promoter", "value": 41.8, "unit": "fold"}, {"measurement": "cell number in normal breast epithelial cells", "setting": "MCF-10A cells", "value": "no changes"}, {"measurement": "levels of p-AKT (Ser^473)", "setting": "p-AKT (Ser^473)", "value": "significantly increased"}, {"measurement": "Nic concentration in gastric juices", "setting": "[1]; in vivo", "value": "> 800", "unit": "ng/mL"}, {"measurement": "Nic concentration in plasma", "setting": "[1]; in vivo", "value": "about 15 ng/mL"}, {"measurement": "Nic concentration in saliva", "setting": "[1]; in vivo", "value": "> 1300", "unit": "ng/mL"}, {"measurement": "saliva concentration of nicotine", "setting": "[1]; in vivo", "value": 1, "unit": "mM"}, {"measurement": "serum concentration of nicotine", "setting": "[1]; in vivo", "value": "10 to 100", "unit": "µM"}, {"measurement": "steady-state serum concentration of nicotine", "setting": "[1]; in vivo", "value": 200, "unit": "nM"}, {"measurement": "inhaled Nic absorbed systemically during smoking", "setting": "[1]; studies using ^14C-Nic", "value": "80-90%"}, {"measurement": "cellular proliferation rates in wild-type (C) and scrambled vector control (Sc) cells", "setting": "MCF-7 cells; MCF-7 (C) and (Sc)", "value": "significantly increased"}, {"measurement": "breast cancer cell growth", "setting": "MCF-7 cells; MCF-7, 24 h", "value": "significantly stimulated"}, {"measurement": "Nic-induced growth effects in α9-nAChR siRNA knockdown (Si) cells", "setting": "MCF-7 cells; MCF-7 α9-nAChR (Si)", "value": "almost completely attenuated"}, {"measurement": "time after Nic treatment at which significant increase in α9-nAChR mRNA level was detected", "setting": "α9-nAChR mRNA; Nic 1 μM time course", "value": 6, "unit": "h"}, {"measurement": "α9-nAChR mRNA expression (real-time PCR)", "setting": "α9-nAChR mRNA; Nic 10 μM or E2 10 nM, 24 h", "value": "significantly upregulated"}]}
{"smiles": "[3H]CN1CCCC1c1cccnc1", "note": "[[^3H]-Nic, L-(−)-[N-methyl-^3H]-Nic]", "values": [{"measurement": "time at which maximum binding activity is attained", "setting": "α9-nAChR", "value": 60, "unit": "min"}]}
{"smiles": "CN1CCCC1c1cccnc1", "note": "[[^3H]-Nic, L-(−)-[N-methyl-^3H]-Nic]", "values": [{"measurement": "Kd", "setting": "α9-nAChR; read-out: dissociation constant (Kd) of [^3H]-Nic binding", "value": 3, "unit": "nM"}]}
{"smiles": "C[C@]12CC[C@@H]3c4ccc(O)cc4CC[C@H]3[C@@H]1CC[C@@H]2O", "note": "[E2, estradiol]", "values": [{"measurement": "induction of full-length α9-nAChR promoter luciferase activity", "setting": "α9-nAChR promoter", "value": 2.3, "unit": "fold"}]}
